Laboratory results as given in patent US10278394B2, “Compounds derived from herbicidal carboxylic acids and tetraalkylammonium or (arylalkyl)trialkylammonium hydroxides” (Dow AgroSciences LLC, priority 2007, dated 2019).

Test system: grapes (Vitis labrusca L.)
Assay: Volatility evaluation: injury to grapes from vapor exposure to treated wheat
Assay type: in vivo
Details: wheat sprayed at 11200 g ae/ha; 24 hour vapor exposure at 40° C.; evaluated 7 days after exposure
From the text: Method for evaluating the volatility of herbicide standards and the compounds derived from combining a carboxylic acid herbicide with either a tetraalkylammonium or an (arylalkyl)trialkylammonium hydroxide.
Four pots of wheat (Triticum aestivum L.) grown in 4 inch square pots were sprayed at 11200 g ae/ha with each of the different forms of 2,4-D. Treatments were applied with a tracksprayer manufactured by Allen Machine Works. The sprayer utilized an 8002E spray nozzle, spray pressure of 262 kPa pressure and speed of 1.5 mph (2.4 km/h) to deliver 187 L/Ha. The nozzle height was 46 cm above the plant canopy. The growth stage of the wheat was 1 to 2 leaf. The wheat plants were allowed to thoroughly dry to ensure that none of the spray solution was present when they were moved into a clean pot flat. A known sensitive species, grapes (Vitis labrusca L.) were placed at the opposite end of the flat. All of the pots were covered with a humidome with small ½ inch (1.27 cm) diameter holes cut into the end where the wheat was placed and a small box fan powered with a battery in the other end to pull air across the treated wheat plants and over the top of grapes. […] A 24 hour exposure period was used after which the sensitive plants were then removed and placed in the greenhouse and evaluated for injury from vapor exposure to the treatments.

Compound: CNC.COc1c(Cl)ccc(Cl)c1C(=O)O [Dicamba DMA]
- % Injury to grapes from vapor exposure: 70%
